# Patent publication US8349768B2, “Use of abscisic acid to alter sensory characteristics of white grapes and wine” (Valent BioSciences Corporation, priority 2007, dated 2013)
# What was measured:
# grapevines = conditions: application of S-ABA; During and Broquedis 1980; cited from earlier work
# [1] = test system: white wine grape cultivar 'Semillon'; experiment: Semillon field experiment: spectral analysis of berries at harvest; format: in vivo, grapevine
# Experimental: (§1) A replicated field experiment was conducted on the white wine grape cultivar ‘Semillon’ in the Riverina growing region of New South Wales, Australia to test the effect of S-ABA on white grapes. Four treatments were tested: Untreated control, 200 ppm S-ABA applied at pre-veraison, 200 ppm S-ABA applied at veraison, and 200 ppm S-ABA applied during the post-veraison period (berry sugar level of 10-11 Baume (18-20° brix)). There were 4 replicates of each treatment and the experiment was laid out in a randomized complete block (RCB) design. S-ABA was applied using a commercial airblast sprayer. S-ABA was applied at a concentration of 200 ppm in a volume of approximately 2000 L/Ha (approximately 200 gallons/A) in order to achieve thorough and complete coverage of the grape bunches. A 20% S-ABA soluble granule formulation was utilized in the experiment. The commercial surfactant Agral was included at a rate of 10 ml/100 L spray. Applications of S-ABA were made at pre-veraison (approximately 3 weeks before veraison or berry softening), veraison, and during the post-veraison period when the grape sugar levels had reached approximately 10-11 Baume (18-20° brix). The 10-11 Baume application took place 36 days after the veraison application. Irrigation, summer pruning, insecticide/fungicides and other routine vine management practices were the same as those practiced commercially by the grower in the adjacent parts of the vineyard.
# (§2) Grape samples were harvested at the time of commercial harvest for berry analysis and table wine production. For the standard maturity berry measurements, 12-20 bunches per replicate were sampled. Bunches were randomly selected from both sides of the vines. Samples were analyzed using standard analytical methods used by the grape and wine industry. For additional spectral analyses, samples of 100 berries from each treatment were collected prior to winemaking.
# [2] = test system: white wine grape cultivar 'Semillon'; experiment: Semillon wine descriptive analysis; format: in vivo, grapevine; conditions: for Aroma (descriptor): untreated: low aroma, some fruit; for Color (descriptor): untreated: pale straw
# Experimental: as §1
# (§3) Wine was produced from the grapes from each of the S-ABA treatments. Small lot primary fermentations were conducted and the wine was bottled. Triplicate ferments of each treatment were conducted using approximately 3×50 kg of grapes. Each replicate ferment contained an equal volume of grapes from each of the four field replicates. Grapes were harvested from the central panels within each replicate. All grapes were harvested from both sides of the vines from these panels. The grapes were transferred immediately to the experimental winery, protected from heat and treated with sulfur dioxide. A standard winemaking protocol used for small-scale replicated primary fermentations was followed. Following the fermentation, the wine was bottled.
# (§4) Sensory analysis was conducted on the treated and untreated wines. A panel consisting of nine experienced wine tasters evaluated the wines for aroma and taste. The wine grape cultivar was identified, but no information regarding the field treatments was identified to the tasters.
# A wine descriptive analysis was also conducted for the Semillon wines prepared from the untreated control and from the S-ABA treatments. The panels provided descriptive terms to characterize the aroma, taste and color profile of each wine. The methodology used was based on survey-style collection with a thematic analysis to pull out the most consistent terms (Table 5).
# grapes = conditions: S-ABA application on grapes; Han et al. 1996; cited from earlier work
# [3] = test system: white wine grape cultivar 'Semillon'; experiment: Semillon field experiment: standard maturity berry measurements at harvest; format: in vivo, grapevine; conditions: for Baume: Semillon berries at harvest (54 days after veraison); for Titratable Acidity / pH: Semillon berries at harvest
# Experimental: as §1, §2
# [4] = test system: white wine grape cultivar 'Semillon'; experiment: Semillon grape tasting panel; format: in vivo, grapevine; conditions: Semillon grapes sampled at preharvest and at harvest; panel of three tasters; 200 ppm S-ABA
# Experimental: as §1, with “Irrigation, summer pruning, insecticide/fungicides and other routine vine management practices were the same as those practiced commercially by the grower in the adjacent parts of the vineyard.” left out
# [5] = test system: white wine grape cultivar 'Chardonnay'; experiment: Chardonnay wine sensory analysis: straight judgment of difference test; format: in vivo, grapevine; conditions: All Chardonnay wines from the S-ABA treatments; ten tasters; with statistical significance
# Experimental: (§5) A large block unreplicated field experiment was conducted on the white wine grape cultivar ‘Chardonnay’ in the Riverina growing region of New South Wales, Australia to test the effect of S-ABA on white grapes. Three treatments were tested: Untreated control, 200 ppm S-ABA applied at pre-veraison and 200 ppm S-ABA applied at veraison. Each block consisted of 4 rows and covered 0.4 Ha in size. S-ABA was applied using a commercial airblast sprayer. S-ABA was applied at a concentration of 200 ppm in a volume of approximately 1000 L/Ha (approximately 100 gallons/A) in order to achieve thorough and complete coverage of the grape bunches. A 20% S-ABA soluble granule formulation was utilized in the experiment. The commercial surfactant Kendeen 20 was included at a rate of 50 ml/100 L spray. Applications of S-ABA were made at pre-veraison (approximately 3 weeks before veraison or berry softening) and veraison. Irrigation, summer pruning, insecticide/fungicides and other routine vine management practices were the same as those practiced commercially by the grower in the adjacent parts of the vineyard.
# (§6) Wine was produced from the grapes from each of the S-ABA treatments. […]
# (§7) Sensory analysis was conducted on the S-ABA-treated and untreated wines. A panel consisting of ten experienced wine tasters evaluated the wines for aroma and taste. […]
# red grapes = conditions: exogenous application to red grapes prior to harvest; literature; cited from earlier work
# [6] = test system: white wine grape cultivar 'Semillon'; experiment: Semillon wine sensory analysis: straight judgment of difference test; format: in vivo, grapevine; conditions: for Statistically significant (difference from reference wine) / Number of tasters who selected as different from reference wine/Total number of tasters: Semillon wine; for Number of tasters who selected as different from reference wine/Total number of tasters: reference = untreated control
# Experimental: as §1, §3, §4
# A straight judgment of difference test was conducted to determine if the wines were different from the untreated control. […] Therefore, these wines can be considered to be different from the reference wine, thereby implying a treatment effect.
# [7] = test system: white wine grape cultivar 'Chardonnay'; experiment: Chardonnay field experiment: spectral analysis of berries at harvest; format: in vivo, grapevine; conditions: for A280 / A320 / A420 / Est. of brown pigments / Total Flavonoids / Total Hydroxycinnamates / Total Phenolics: Chardonnay berries at harvest
# Experimental: as §5
# as §2, with “Grapes” for “Grape”
# [8] = test system: white wine grape cultivar 'Chardonnay'; experiment: Chardonnay wine descriptive analysis; format: in vivo, grapevine
# Experimental: as §5, §6, §7
# [9] = test system: white wine grape cultivar 'Chardonnay'; experiment: Chardonnay field experiment: standard maturity berry measurements at harvest; format: in vivo, grapevine; conditions: for Baume: Chardonnay berries at harvest (26 days after veraison); for Titratable Acidity / pH: Chardonnay berries at harvest
# Experimental: as §5
# as §2, with “Grapes” for “Grape”
# [10] = test system: white wine grape cultivar 'Chardonnay'; experiment: Chardonnay grape tasting panel; format: in vivo, grapevine; conditions: Chardonnay grapes sampled at preharvest and at harvest; panel of two tasters; 200 ppm S-ABA
# Experimental: as §5
# [11] = test system: white wine grape cultivar 'Semillon'; experiment: Semillon wine chemical (spectral) analysis; format: in vivo, grapevine
# Experimental: as §1, §3
# (§8) Chemical analyses were conducted on the wines prepared from the various treatments in the field experiment using industry standard analytical methods.
# [12] = test system: white wine grape cultivar 'Chardonnay'; experiment: Chardonnay wine chemical (spectral) analysis; format: in vivo, grapevine
# Experimental: as §5
# Wine was produced from the grapes from each of the S-ABA treatments. Small lot primary fermentations were conducted and the wine was bottled. […] ferments of each treatment were conducted using approximately 3×50 kg of grapes. Each replicate ferment contained an equal volume of grapes from entire panels of vines. All grapes were harvest from both sides of the vines from these panels. The grapes were transferred immediately to the experimental winery, protected from heat and treated with sulfur dioxide. A standard winemaking protocol used for small-scale replicated primary fermentations was followed. Following the fermentation, the wine was bottled.
# as §8
# [13] = Semillon berries at harvest, 200 ppm S-ABA applied at pre-veraison
# [14] = Semillon berries at harvest, 200 ppm S-ABA applied at veraison
# [15] = Semillon berries at harvest, 200 ppm S-ABA applied post-veraison (11 Baume)
# [16] = 200 ppm S-ABA applied at pre-veraison
# [17] = 200 ppm S-ABA applied at veraison
# [18] = 200 ppm S-ABA applied post-veraison (11 Baume)
# [19] = 200 ppm S-ABA foliar spray applied at pre-veraison
# [20] = 200 ppm S-ABA foliar spray applied at veraison
# [21] = spectral analysis, 200 ppm S-ABA treatments
substance,measurement,setting,value
"(S)-5-(1-hydroxy-2,6,6,-trimethyl-4-oxo-2-cyclohexen-1-yl)-3-methyl-(2Z,4E)-pentadienoic acid [S-ABA]",Stomatal resistance in grapevines,grapevines,increase stomatal resistance
same,A280,[1]; [13],6.62
same,A320,[1]; [13],2.642
same,A420,[1]; [13],0.465
same,Est. of brown pigments,[1]; [13],0.47 a.u.
same,Total Flavonoids,[1]; [13],1.80 a.u.
same,Total Hydroxycinnamates,[1]; [13],1.24 a.u.
same,Total Phenolics,[1]; [13],2.62 a.u.
same,A280,[1]; [14],6.85
same,A320,[1]; [14],2.713
same,A420,[1]; [14],0.471
same,Est. of brown pigments,[1]; [14],0.47 a.u.
same,Total Flavonoids,[1]; [14],1.98 a.u.
same,Total Hydroxycinnamates,[1]; [14],1.31 a.u.
same,Total Phenolics,[1]; [14],2.85 a.u.
same,A280,[1]; [15],6.47
same,A320,[1]; [15],2.59
same,A420,[1]; [15],0.461
same,Est. of brown pigments,[1]; [15],0.46 a.u.
same,Total Flavonoids,[1]; [15],1.68 a.u.
same,Total Hydroxycinnamates,[1]; [15],1.19 a.u.
same,Total Phenolics,[1]; [15],2.47 a.u.
same,Effect on phenolic composition of the berries,"[1]; Semillon berries at harvest, 200 ppm S-ABA treatments",tended to increase
same,"Total phenolics, hydroxycinnamates, total flavonoids and estimated brown pigments (chemical analysis)","[1]; Semillon berries, 200 ppm S-ABA treatments vs untreated",some differences
same,Taste (descriptor),"[2]; 200 ppm S-ABA applied at pre-veraison, untreated: citrus, acidic",Much more acidic
same,Aroma (descriptor),[2]; [16],More intense fruit
same,Color (descriptor),[2]; [16],Pale straw
same,Aroma (descriptor),[2]; [17],More intense fruit
same,Aroma (descriptor),[2]; [18],More intense fruit
same,Color (descriptor),[2]; [18],Pale straw
same,Effect on fruit aroma and acidic taste of the wine,[2]; 200 ppm S-ABA treatments,increased or intensified
same,Berry and cluster weight,grapes,increase berry and cluster weight
same,Baume,[3]; [19],11.6
same,Baume,[3]; [20],11.7
same,Baume,[3]; 200 ppm S-ABA foliar spray applied post-veraison (11 Baume),11.6
same,Titratable Acidity,[3]; [16],4.5
same,pH,[3]; [16],3.57
same,Titratable Acidity,[3]; [17],4.5
same,pH,[3]; [17],3.56
same,Titratable Acidity,[3]; [18],4.0
same,pH,[3]; [18],3.61
same,"Effect on berry sugar content (Baume), pH, titratable acidity or bunch weight","[3]; Semillon, 200 ppm S-ABA treatments",did not consistently affect
same,Flavor of S-ABA treated grapes vs untreated grapes,[4],notable differences in flavor
same,Judgment of difference from the reference wine (untreated control),[5],judged to be different from the reference wine
same,Accumulation of anthocyanins and red color of grape berry skins,red grapes,increase the accumulation of anthocyanins and increase the red color
same,Judgment of difference from the reference wine (untreated control),"[6]; All Semillon wines from the S-ABA treatments, nine tasters, with statistical significance",judged to be different from the reference wine
same,Statistically significant (difference from reference wine),[6]; [16],Yes
same,Number of tasters who selected as different from reference wine/Total number of tasters,[6]; [16],8/9
same,Statistically significant (difference from reference wine),[6]; [17],Yes
same,Number of tasters who selected as different from reference wine/Total number of tasters,[6]; [17],8/9
same,Statistically significant (difference from reference wine),[6]; [18],Yes
same,Number of tasters who selected as different from reference wine/Total number of tasters,[6]; [18],8/9
same,A280,[7]; [16],17.37
same,A320,[7]; [16],3.53
same,A420,[7]; [16],0.530
same,Est. of brown pigments,[7]; [16],0.530 a.u.
same,Total Flavonoids,[7]; [16],11.96 a.u.
same,Total Hydroxycinnamates,[7]; [16],2.13 a.u.
same,Total Phenolics,[7]; [16],13.37 a.u.
same,A280,[7]; [17],14.07
same,A320,[7]; [17],3.38
same,A420,[7]; [17],0.567
same,Est. of brown pigments,[7]; [17],0.567 a.u.
same,Total Flavonoids,[7]; [17],8.76 a.u.
same,Total Hydroxycinnamates,[7]; [17],1.98 a.u.
same,Total Phenolics,[7]; [17],10.07 a.u.
same,"Total phenolics, hydroxycinnamates, total flavonoids and estimate of brown pigments (chemical analysis)","[7]; Chardonnay berries, 200 ppm S-ABA treatments vs untreated",some differences
same,Descriptive characteristics compared to the Untreated,[8]; [16],"More intense aroma, slightly more mineral and bitterness"
same,Effect on fruit aroma and acidic taste in the wine,[8]; 200 ppm S-ABA treatments,increased or intensified
same,Baume,[9]; [19],14.3
same,Baume,[9]; [20],14.4
same,Titratable Acidity,[9]; [16],6.2
same,pH,[9]; [16],3.73
same,Titratable Acidity,[9]; [17],6.9
same,pH,[9]; [17],3.60
same,"Effect on berry sugar content (Baume), pH, titratable acidity or bunch weight","[9]; Chardonnay, 200 ppm S-ABA treatments",did not consistently affect
same,Flavor of S-ABA treated grapes vs untreated grapes,[10],notable differences in flavor
same,Total Hydroxycinnamates,[11]; [16],0.8700 a.u.
same,Total Hydroxycinnamates,"[11]; 200 ppm S-ABA applied at veraison, untreated control vs. veraison P = 0.0604",0.9033 a.u.
same,Total Hydroxycinnamates,[11]; [18],0.8267 a.u.
same,Levels of hydroxycinnamates in S-ABA treated wines,[11]; [21],higher levels of hydroxycinnamates
same,Total Hydroxycinnamates,[12]; [16],3.14 a.u
same,Total Phenolics,[12]; [16],2.55 a.u
same,Total Hydroxycinnamates,[12]; [17],3.19 a.u
same,Total Phenolics,[12]; [17],2.97 a.u
same,Balance of hydroxycinnamates and phenolics in S-ABA treated wines,[12]; [21],different balance of hydroxycinnamates and phenolics
